Data reported in patent US20220081412A1, “QUINOLINYL-PYRAZINE-CARBOXAMIDE COMPOUNDS AND USES THEREOF” (The Regents of the University of Michigan, priority 2018, published 2022).

System: MIA PaCa-2 cells
Assay: Bru-seq analysis for nascent RNA synthesis (log2FC of genes, GSEA gene sets)
Type: cell-based, human
Settings: 4 h, MIA PaCa-2 cells
[1] = top upregulated protein-coding genes
[2] = upregulated gene sets, HALLMARK

Cc1cc(NC(=O)c2cnc(N3CCNCC3)cn2)c2ncccc2c1 [J28, N-(6-methylquinolin-8-yl)-5-(piperazin-1-yl)pyrazine-2-carboxamide]
log2FC UAP1L1 [1]: 1.26 | log2FC ZC3H12A [1]: 1.27 | ES AMUNDSON_GAMMA_RADIATION_RESPONSE (upregulated gene sets, C2): 0.673 | ES BANDRES_RESPONSE_TO_CARMUSTIN_MGMT_48HR_DN (upregulated gene sets, C2): 0.612 | ES CAMPS_COLON_CANCER_COPY_NUMBER_UP (upregulated gene sets, C2): 0.653 | ES DACOSTA_UV_RESPONSE_VIA_ERCC3_UP (upregulated gene sets, C2): 0.506 | ES DAIRKEE_TERT_TARGETS_UP (upregulated gene sets, C2): 0.528 | ES DEBIASI_APOPTOSIS_BY_REOVIRUS_INFECTION_DN (upregulated gene sets, C2): 0.488 | ES DIRMEIER_LMPl_RESPONSE_EARLY (upregulated gene sets, C2): 0.670 | ES ENK_UV_RESPONSE_KERATINOCYTE_UP (upregulated gene sets, C2): 0.501 | ES FERREIRA_EWINGS_SARCOMA_UNSTABLE_VS_STABLE_DN (upregulated gene sets, C2): 0.623 | ES GINESTIER_BREAST_CANCER_ZNF217_AMPLIFIED_DN (upregulated gene sets, C2): 0.481 | ES HORTON_SREBF_TARGETS (upregulated gene sets, C2): 0.807 | ES KEGG_SYSTEMIC_LUPUS_ERYTHEMATOSUS (upregulated gene sets, C2): 0.661 | ES KIM_ALL_DISORDERS_DURATION_CORR_DN (upregulated gene sets, C2): 0.615 | ES LEONARD_HYPDXIA (upregulated gene sets, C2): 0.716 | ES MARTENS_TRETINOIN_RESPONSE_UP (upregulated gene sets, C2): 0.552 | ES NIKOLSKY_BREAST_CANCER_16P13_AMPLICON (upregulated gene sets, C2): 0.699 | ES NIKOLSKY_BREAST_CANCER_16Q24_AMPLICON (upregulated gene sets, C2): 0.706 | ES QI_HYPOXIA (upregulated gene sets, C2): 0.559 | ES REACTOME_AMYLOIDS (upregulated gene sets, C2): 0.710 | ES REACTOME_CHOLESTEROL_BIOSYNTHESIS (upregulated gene sets, C2): 0.821 | ES REACTOME_PEPTIDE_CHAIN_ELONGATION (upregulated gene sets, C2): 0.564 | ES REACTOME_RNA_POL_I_PROMOTER_OPENING (upregulated gene sets, C2): 0.769 | ES REACTOME_RNA_POL_I_TRANSCRIPTION (upregulated gene sets, C2): 0.622 | ES RICKMAN_METASTASIS_DN (upregulated gene sets, C2): 0.556 | ES SCHMIDT_POR_TARGETS_IN_LIMB_BUD_UP (upregulated gene sets, C2): 0.788 | NES AMUNDSON_GAMMA_RADIATION_RESPONSE (upregulated gene sets, C2): 2.280 | NES BANDRES_RESPONSE_TO_CARMUSTIN_MGMT_48HR_DN (upregulated gene sets, C2): 2.308 | NES CAMPS_COLON_CANCER_COPY_NUMBER_UP (upregulated gene sets, C2): 2.238 | NES DACOSTA_UV_RESPONSE_VIA_ERCC3_UP (upregulated gene sets, C2): 2.272 | NES DAIRKEE_TERT_TARGETS_UP (upregulated gene sets, C2): 2.400 | NES DEBIASI_APOPTOSIS_BY_REOVIRUS_INFECTION_DN (upregulated gene sets, C2): 2.211 | NES DIRMEIER_LMPl_RESPONSE_EARLY (upregulated gene sets, C2): 2.238 | NES ENK_UV_RESPONSE_KERATINOCYTE_UP (upregulated gene sets, C2): 2.338 | NES FERREIRA_EWINGS_SARCOMA_UNSTABLE_VS_STABLE_DN (upregulated gene sets, C2): 2.223 | NES GINESTIER_BREAST_CANCER_ZNF217_AMPLIFIED_DN (upregulated gene sets, C2): 2.203 | NES HORTON_SREBF_TARGETS (upregulated gene sets, C2): 2.353 | NES KEGG_SYSTEMIC_LUPUS_ERYTHEMATOSUS (upregulated gene sets, C2): 2.294 | NES KIM_ALL_DISORDERS_DURATION_CORR_DN (upregulated gene sets, C2): 2.457 | NES LEONARD_HYPDXIA (upregulated gene sets, C2): 2.369 | NES MARTENS_TRETINOIN_RESPONSE_UP (upregulated gene sets, C2): 2.244 | NES NIKOLSKY_BREAST_CANCER_16P13_AMPLICON (upregulated gene sets, C2): 2.231 | NES NIKOLSKY_BREAST_CANCER_16Q24_AMPLICON (upregulated gene sets, C2): 2.371 | NES QI_HYPOXIA (upregulated gene sets, C2): 2.230 | NES REACTOME_AMYLOIDS (upregulated gene sets, C2): 2.374 | NES REACTOME_CHOLESTEROL_BIOSYNTHESIS (upregulated gene sets, C2): 2.387 | NES REACTOME_PEPTIDE_CHAIN_ELONGATION (upregulated gene sets, C2): 2.220 | NES REACTOME_RNA_POL_I_PROMOTER_OPENING (upregulated gene sets, C2): 2.411 | NES REACTOME_RNA_POL_I_TRANSCRIPTION (upregulated gene sets, C2): 2.250 | NES RICKMAN_METASTASIS_DN (upregulated gene sets, C2): 2.370 | NES SCHMIDT_POR_TARGETS_IN_LIMB_BUD_UP (upregulated gene sets, C2): 2.303 | ES HALLMARK_ADIPOGENESIS [2]: 0.383 | ES HALLMARK_ANDROGEN_RESPONSE [2]: 0.356 | ES HALLMARK_APICAL_JUNCTION [2]: 0.359 | ES HALLMARK_APOPTOSIS [2]: 0.390 | ES HALLMARK_BILE_ACID_METABOLISM [2]: 0.361 | ES HALLMARK_CHOLESTEROL_HOMEOSTASIS [2]: 0.656 | ES HALLMARK_COAGULATION [2]: 0.474 | ES HALLMARK_DNA_REPAIR [2]: 0.336 | ES HALLMARK_ESTROGEN_RESPONSE_EARLY [2]: 0.354 | ES HALLMARK_ESTROGEN_RESPONSE_LATE [2]: 0.335 | ES HALLMARK_FATTY_ACID_METABOLISM [2]: 0.392 | ES HALLMARK_GLYCOLYSIS [2]: 0.321 | ES HALLMARK_HEME_METABOLISM [2]: 0.367 | ES HALLMARK_HYPOXIA [2]: 0.479 | ES HALLMARK_MTORC1_SIGNALING [2]: 0.436 | ES HALLMARK_MYOGENESIS [2]: 0.560 | ES HALLMARK_NOTCH_SIGNALING [2]: 0.494 | ES HALLMARK_OXIDATIVE_PHOSPHORYLATION [2]: 0.351 | ES HALLMARK_P53_PATHWAY [2]: 0.471 | ES HALLMARK_PEROXISOME [2]: 0.379 | ES HALLMARK_PI3K_AKT_MTOR_SIGNALING [2]: 0.426 | ES HALLMARK_UNFOLDED_PROTEIN_RESPONSE [2]: 0.433 | ES HALLMARK_UV_RESPONSE_UP [2]: 0.436 | ES HALLMARK_WNT_BETA_CATENIN_SIGNALING [2]: 0.481 | ES HALLMARK_XENOBIOTIC_METABOLISM [2]: 0.348 | NES HALLMARK_ADIPOGENESIS [2]: 1.653 | NES HALLMARK_ANDROGEN_RESPONSE [2]: 1.381 | NES HALLMARK_APICAL_JUNCTION [2]: 1.422 | NES HALLMARK_APOPTOSIS [2]: 1.615 | NES HALLMARK_BILE_ACID_METABOLISM [2]: 1.330 | NES HALLMARK_CHOLESTEROL_HOMEOSTASIS [2]: 2.374 | NES HALLMARK_COAGULATION [2]: 1.628 | NES HALLMARK_DNA_REPAIR [2]: 1.407 | NES HALLMARK_ESTROGEN_RESPONSE_EARLY [2]: 1.458 | NES HALLMARK_ESTROGEN_RESPONSE_LATE [2]: 1.358 | NES HALLMARK_FATTY_ACID_METABOLISM [2]: 1.605 | NES HALLMARK_GLYCOLYSIS [2]: 1.363 | NES HALLMARK_HEME_METABOLISM [2]: 1.548 | NES HALLMARK_HYPOXIA [2]: 1.984 | NES HALLMARK_MTORC1_SIGNALING [2]: 1.917 | NES HALLMARK_MYOGENESIS [2]: 2.098 | NES HALLMARK_NOTCH_SIGNALING [2]: 1.473 | NES HALLMARK_OXIDATIVE_PHOSPHORYLATION [2]: 1.548 | NES HALLMARK_P53_PATHWAY [2]: 1.986 | NES HALLMARK_PEROXISOME [2]: 1.483 | NES HALLMARK_PI3K_AKT_MTOR_SIGNALING [2]: 1.634 | NES HALLMARK_UNFOLDED_PROTEIN_RESPONSE [2]: 1.739 | NES HALLMARK_UV_RESPONSE_UP [2]: 1.773 | NES HALLMARK_WNT_BETA_CATENIN_SIGNALING [2]: 1.483 | NES HALLMARK_XENOBIOTIC_METABOLISM [2]: 1.415
